# ± gives the standard deviation of the averaged measurements.
# Test system: HL-60
# Assay: cell viability (% survival relative to DMSO control); higher = less cytotoxic
# Conditions: 72 h
# Method in brief: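 In 384-well plates, the full library was rescreened in duplicate on HL-60 cells in RPMI 1640 with 10% FBS, at 1–10,000 nM in five tenfold concentrations, for 72 h at 37 °C, 5% CO2. Each run also held DMSO or 100 nM of one of three metabolic inhibitors. Viability was measured by CellTiter-Glo and normalised to DMSO wells and to wells with proteasome inhibitor, present at 10 μM. Any area under the curve comes from four-parameter log-logistic fitting with drc and PharmacoGx.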
# [1] = 0.001 µM, co-treatment: AZD3965 100 nM
# [2] = 0.001 µM, co-treatment: DMSO vehicle
# [3] = 0.001 µM, co-treatment: GSK2194069 100 nM
# [4] = 0.001 µM, co-treatment: pictilisib 100 nM
# [5] = 0.01 µM, co-treatment: AZD3965 100 nM
# [6] = 0.01 µM, co-treatment: DMSO vehicle
# [7] = 0.01 µM, co-treatment: GSK2194069 100 nM
# [8] = 0.01 µM, co-treatment: pictilisib 100 nM
# [9] = 0.1 µM, co-treatment: AZD3965 100 nM
# [10] = 0.1 µM, co-treatment: DMSO vehicle
# [11] = 0.1 µM, co-treatment: GSK2194069 100 nM
# [12] = 0.1 µM, co-treatment: pictilisib 100 nM
# [13] = 1 µM, co-treatment: AZD3965 100 nM
# [14] = 1 µM, co-treatment: DMSO vehicle
# [15] = 1 µM, co-treatment: GSK2194069 100 nM
# [16] = 1 µM, co-treatment: pictilisib 100 nM
# [17] = 10 µM, co-treatment: AZD3965 100 nM
# [18] = 10 µM, co-treatment: DMSO vehicle
# [19] = 10 µM, co-treatment: GSK2194069 100 nM
# [20] = 10 µM, co-treatment: pictilisib 100 nM
SMILES,cell viability [1],cell viability [2],cell viability [3],cell viability [4],cell viability [5],cell viability [6],cell viability [7],cell viability [8],cell viability [9],cell viability [10],cell viability [11],cell viability [12],cell viability [13],cell viability [14],cell viability [15],cell viability [16],cell viability [17],cell viability [18],cell viability [19],cell viability [20]
OCCN1CCN(CCCN2c3ccccc3Sc3ccc(Cl)cc32)CC1 [Perphenazine],101 ± 1.7%,105 ± 2.5%,98.1 ± 2.6%,99.74 ± 0.41%,99.4 ± 5.2%,102 ± 1.6%,101 ± 11%,105 ± 2%,107 ± 5.8%,105 ± 4.4%,95.1 ± 16%,107 ± 8.5%,98.6 ± 1.1%,103.72 ± 0.059%,97.5 ± 15%,109 ± 5.6%,86.3 ± 7%,91.3 ± 5.4%,55.4 ± 12%,61.7 ± 8%
C=CCc1ccc2c(c1O)C(=O)c1ccccc1C2=O [R162],106 ± 5.3%,103 ± 1.6%,102 ± 2.1%,102 ± 18%,99.12 ± 0.61%,103 ± 3.5%,103 ± 8.4%,101 ± 10%,104 ± 4.1%,98.1 ± 2.4%,98.5 ± 4.3%,101 ± 7.5%,102 ± 1.3%,100.6 ± 0.84%,100 ± 2.6%,104 ± 2.5%,106 ± 4.2%,97.8 ± 2.4%,97.07 ± 0.71%,90.6 ± 9.3%
O=C(c1ccc(OCCN2CCCCC2)cc1)c1c(-c2ccc(O)cc2)sc2cc(O)ccc12 [Raloxifene],93 ± 9.2%,85.9 ± 11%,79.1 ± 13%,104.6 ± 0.91%,91.9 ± 19%,80.4 ± 24%,80.5 ± 22%,94.1 ± 9%,98 ± 1.4%,101 ± 2.3%,93.3 ± 1.2%,99.7 ± 8.1%,101 ± 8.2%,97.14 ± 0.84%,87.1 ± 23%,105 ± 2.5%,100.7 ± 0.99%,101 ± 1.9%,70.9 ± 18%,113 ± 9.9%
NC(=O)c1ncn([C@@H]2O[C@H](CO)[C@@H](O)[C@H]2O)n1 [Ribavirin],100 ± 3.5%,100.3 ± 0.67%,92.1 ± 6.2%,105 ± 7.1%,100 ± 4.4%,102 ± 1.6%,76.6 ± 27%,106 ± 5%,99.2 ± 3.9%,102 ± 3%,94.1 ± 5.5%,101 ± 3%,99.8 ± 4.1%,97.1 ± 3.6%,90.1 ± 14%,107 ± 3.6%,106 ± 2.2%,104 ± 4.4%,90.4 ± 12%,104 ± 3.7%
Nc1ncnc2c1ncn2[C@@H]1O[C@H](CSCC[C@H](N)C(=O)O)[C@@H](O)[C@H]1O [S-Adenosyl Homocysteine],103 ± 18%,97.1 ± 11%,91.8 ± 36%,108 ± 33%,85.2 ± 20%,93.3 ± 4.4%,86.7 ± 12%,78.6 ± 4.6%,101 ± 3.4%,98.6 ± 3.3%,103 ± 8.4%,102 ± 5.2%,97.2 ± 3.1%,98.5 ± 2.5%,99.08 ± 0.63%,97.8 ± 7%,101.99 ± 0.033%,99.4 ± 3.9%,94.5 ± 13%,98 ± 4.3%
CCCc1nn(C)c2c(O)nc(-c3cc(S(=O)(=O)N4CCN(C)CC4)ccc3OCC)nc12 [Sildenafil],104 ± 6.6%,88.1 ± 13%,91.3 ± 6.8%,79.6 ± 40%,99.2 ± 1.4%,98.4 ± 4.1%,96.77 ± 0.75%,102 ± 7.1%,104.5 ± 0.69%,106 ± 5.1%,123 ± 12%,117 ± 10%,99.4 ± 4.6%,103 ± 2.1%,97.06 ± 0.92%,93.6 ± 18%,99.89 ± 0.83%,102 ± 2.9%,93 ± 1.7%,94.7 ± 7.5%

# From the supplement of paper PMC8671470
